Experimental data: publication PMC9929129, “Towards Translation of PqsR Inverse Agonists: From In Vitro Efficacy Optimization to In Vivo Proof‐of‐Principle” (Advanced Science, 2023)

Columns and labels:
[1] = target: T1, TRPV1 channel (Homo sapiens, UniProt Q8NER1); experiment: Ion channel profiling at Charles River: TRPV1; assay type: cell-based; details: expressed in HEK293 cells; read-out: ESTIMATED IC50
T1 construct: host or cells: HEK293 cells
Protocol: 1.4.3 Ion Channel Profiling at Charles River
Table S9. Compound 24 was tested against the following ion channels at Charles River Laboratories. […]
(§1) FLIPR Assay expressed in HEK293 cells
GABAA α5/β3/γ2 ionotropic receptor (human GABRA5, GABRB3, >30 and GABRG2 genes, expressed in HEK293 cells […]
TRPV1 channel (human TRPV1 gene) expressed in HEK293 cells >30 […]
(§2) An increase in the number of colonies of at least two-fold over baseline (mean + SD of the vehicle control) and a dose response indicate a positive response. An […]
(§3) different from the vehicle control.
(§4) Where indicated, S9 fraction from the livers of Aroclor 1254-treated rats were included in the incubation at a final concentration of 4.5%. A NADPH-regenerating system was also included to ensure a steady supply of reducing equivalents.

[2] = Metabolic stability in mouse liver S9 fractions; assay type: in vitro ADME; details: liver S9 fraction, read-out: Mouse liver S9 t½
[3] = target: T2, Cav1.2 (L-type) human Ca ion channel (Homo sapiens, UniProt Q13936); experiment: cell-based
T2 construct: Eurofins CYL8051QP2DR
Protocol: (§5) 1.4.2 Further functional off-target assays (Eurofins)
Table S8. Compound 24 was further tested in the following functional assays at Eurofins. […]
Cav1.2 (L-type) human Ca ion channel cell based automated patch >30 µM clamp assay (CYL8051QP2DR) […]
as §1
GABAA α5/β3/γ2 ionotropic receptor (human GABRA5, GABRB3, >30 and GABRG2 genes, expressed in HEK293 cells

[4] = target: T3, HTR2B Human 5-Hydroxytryptamine GPCR (Homo sapiens, UniProt P41595); experiment: HTR2B GPCR calcium assay, 86-0030P-2091AN; assay type: cell-based
T3 construct: 86-0030P-2091AN
Description: as §5
Table S8. Compound 24 was further tested in the following functional assays at Eurofins.
ASSAY NAME ESTIMATED IC50 [µM] […]
as §1
GABAA α5/β3/γ2 ionotropic receptor (human GABRA5, GABRB3, >30
and GABRG2 genes, expressed in HEK293 cells

[5] = In vivo PK study, intratracheal (IT) and intravenous (IV); details: for Tmax / CL/F / Vd/F / half-life: male, CD1, mouse; for Cl/F_obs / Vz/F_obs: […] IV
Protocol: The enzymatic activity of the MLM
First, a calibration curve was prepared by […]
lavage fluid (BALF). Caffeine was used as
The in live part for the IV and IT PK studies were performed at CRO Saretius (UK). Groups of male CD1 […]
light/dark cycle with free access to food and water. Temperature and humidity were controlled according to U.K. HO regulations. On the day of the study, mice were briefly anesthetized with isoflurane before suspending the mouse by its upper incisors on a board held at an angle of approx.
45 degrees. Mice were then dosed intratracheally with the compound (24 or Tob) at the designated does formulated in ethanol/tyloxapol/glycerol/phosphate-buffered saline (PBS) [10:1:5:84] in a 1 mL/kg dosing volume up to a maximum of 30 µL per mouse. A laryngoscope was used to facilitate dosing. Animals were allowed to recover before replacing into their home cages. Terminal blood samples were then taken from groups of 3 mice at each of eight time points post-dose by cardiac puncture under CO2. Blood samples were placed in tubes on ice containing EDTA anticoagulant. After gentle mixing, samples were centrifuged (10,000 rpm x 3 min) and two 50 μL aliquots taken into fresh tubes that were immediately frozen on dry ice. Following blood sample collection, tracheas were exposed and a small incision made. An 18 Gauge plastic tube was then inserted through the incision into the trachea and tied in place. Aliquots of 0.8 mL of sterile saline were then infused into and then withdrawn from the lungs and the collected bronchoalveolar lavage (BALF) sample placed into a tube. This process was repeated two more times, and the samples from each mouse pooled. […]
frozen by immersion in liquid nitrogen.

[6] = Metabolic stability in mouse liver microsomes (MLM)
Protocol: 1.3.2 Metabolic-Stability Tests in Mouse Liver Microsomes (MLM).
Phase I metabolic stability was evaluated by incubating the compound (1 μM) with 0.5 mg/mL MLM (Corning) and 1 mM NADPH at 37 °C for 0, 5, 10, 15 and 30 min. The enzymatic activity of the MLM was determined by measuring the metabolic stability of Verapamil, Diphenhydramine and Benzydamine (1 μM each).
The half-life (t1/2) was determined by analyzing the concentrations of the compounds at the different time points by HPLC-MS/MS.

[7] = target: CYP1A (Homo sapiens, UniProt P05177); experiment: Cytochrome P450 inhibition assay, CYP1A; assay type: in vitro ADME
Protocol: (§6) 1.4.4 Pharmacokinetic and off-target functional assays (Cyprotex)
(§7) Compound 24 was assayed at Cyprotex in functional assays for interference with important off-targets as well as important pharmacokinetic parameters. With the exception of plasma protein binding, a dose-response relationship was studied in order to calculate IC50 values.
(§8) Table S10. Information on in vitro ADMET assays performed at Cyprotex. […]
as §2, §3, §4

[8] = target: T4, CYP2D6 (Homo sapiens, UniProt P10635); experiment: Cytochrome P450 inhibition assay, CYP2D6; assay type: in vitro ADME; details: Metabolic activity
T4 construct: Cyprotex
Protocol: as §6, §7, §8, §2, §3, §4

[9] = epithelial lining fluid, iv, ELF Tmax

T2 sequence (Q13936 whole entry): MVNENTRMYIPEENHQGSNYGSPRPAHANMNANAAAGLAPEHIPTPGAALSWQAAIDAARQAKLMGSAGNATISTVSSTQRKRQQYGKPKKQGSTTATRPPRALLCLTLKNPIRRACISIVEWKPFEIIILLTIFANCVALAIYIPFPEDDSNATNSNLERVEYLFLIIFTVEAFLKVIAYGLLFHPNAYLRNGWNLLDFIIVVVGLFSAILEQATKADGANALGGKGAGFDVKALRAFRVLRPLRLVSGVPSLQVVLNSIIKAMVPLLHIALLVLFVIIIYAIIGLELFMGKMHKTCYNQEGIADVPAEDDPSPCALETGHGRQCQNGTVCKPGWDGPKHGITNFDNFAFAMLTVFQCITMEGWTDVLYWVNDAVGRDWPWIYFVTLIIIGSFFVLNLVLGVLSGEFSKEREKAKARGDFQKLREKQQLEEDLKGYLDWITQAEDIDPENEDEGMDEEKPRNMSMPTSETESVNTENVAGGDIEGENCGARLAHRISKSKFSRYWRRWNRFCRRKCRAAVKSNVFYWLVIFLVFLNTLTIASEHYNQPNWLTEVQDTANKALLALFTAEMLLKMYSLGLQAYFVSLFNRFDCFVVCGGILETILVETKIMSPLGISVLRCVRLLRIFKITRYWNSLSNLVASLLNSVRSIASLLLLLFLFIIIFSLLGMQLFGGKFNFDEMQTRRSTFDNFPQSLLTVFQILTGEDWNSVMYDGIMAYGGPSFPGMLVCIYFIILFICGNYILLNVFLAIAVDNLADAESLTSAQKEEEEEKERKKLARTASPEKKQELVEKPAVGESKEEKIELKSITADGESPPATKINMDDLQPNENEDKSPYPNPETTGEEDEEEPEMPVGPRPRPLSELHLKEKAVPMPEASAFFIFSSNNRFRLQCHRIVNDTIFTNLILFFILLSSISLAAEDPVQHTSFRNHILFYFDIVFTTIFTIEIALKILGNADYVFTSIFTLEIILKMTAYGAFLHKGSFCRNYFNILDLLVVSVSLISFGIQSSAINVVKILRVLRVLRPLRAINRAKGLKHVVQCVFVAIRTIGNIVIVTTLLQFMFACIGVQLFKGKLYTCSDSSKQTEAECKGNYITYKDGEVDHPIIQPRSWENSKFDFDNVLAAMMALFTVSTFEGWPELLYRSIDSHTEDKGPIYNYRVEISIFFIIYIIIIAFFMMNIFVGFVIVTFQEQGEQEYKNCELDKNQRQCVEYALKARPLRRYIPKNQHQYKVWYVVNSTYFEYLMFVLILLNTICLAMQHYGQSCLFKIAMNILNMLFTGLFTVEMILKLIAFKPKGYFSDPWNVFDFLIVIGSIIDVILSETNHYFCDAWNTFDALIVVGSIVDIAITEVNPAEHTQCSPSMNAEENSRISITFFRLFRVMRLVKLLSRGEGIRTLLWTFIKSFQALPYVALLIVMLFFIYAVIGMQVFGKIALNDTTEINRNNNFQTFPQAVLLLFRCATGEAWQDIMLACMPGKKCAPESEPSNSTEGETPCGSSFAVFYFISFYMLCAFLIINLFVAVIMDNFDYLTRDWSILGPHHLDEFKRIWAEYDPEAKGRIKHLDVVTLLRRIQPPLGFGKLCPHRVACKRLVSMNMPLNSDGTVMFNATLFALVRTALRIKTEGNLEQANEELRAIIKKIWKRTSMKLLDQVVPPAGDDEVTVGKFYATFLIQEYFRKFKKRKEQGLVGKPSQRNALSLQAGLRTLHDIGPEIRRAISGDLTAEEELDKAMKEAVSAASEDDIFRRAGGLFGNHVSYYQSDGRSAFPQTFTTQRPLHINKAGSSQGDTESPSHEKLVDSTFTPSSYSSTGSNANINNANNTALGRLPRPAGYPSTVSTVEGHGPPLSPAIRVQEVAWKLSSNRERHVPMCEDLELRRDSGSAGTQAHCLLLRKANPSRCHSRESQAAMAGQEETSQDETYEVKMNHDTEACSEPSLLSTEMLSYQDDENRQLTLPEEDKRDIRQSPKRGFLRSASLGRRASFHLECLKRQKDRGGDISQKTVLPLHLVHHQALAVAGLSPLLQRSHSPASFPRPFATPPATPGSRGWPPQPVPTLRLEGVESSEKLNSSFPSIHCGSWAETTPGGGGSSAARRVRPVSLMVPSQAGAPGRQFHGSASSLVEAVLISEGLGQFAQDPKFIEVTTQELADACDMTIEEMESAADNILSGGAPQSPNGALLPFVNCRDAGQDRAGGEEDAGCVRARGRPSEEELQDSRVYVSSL
T2 sequence (Q08289 whole entry partner): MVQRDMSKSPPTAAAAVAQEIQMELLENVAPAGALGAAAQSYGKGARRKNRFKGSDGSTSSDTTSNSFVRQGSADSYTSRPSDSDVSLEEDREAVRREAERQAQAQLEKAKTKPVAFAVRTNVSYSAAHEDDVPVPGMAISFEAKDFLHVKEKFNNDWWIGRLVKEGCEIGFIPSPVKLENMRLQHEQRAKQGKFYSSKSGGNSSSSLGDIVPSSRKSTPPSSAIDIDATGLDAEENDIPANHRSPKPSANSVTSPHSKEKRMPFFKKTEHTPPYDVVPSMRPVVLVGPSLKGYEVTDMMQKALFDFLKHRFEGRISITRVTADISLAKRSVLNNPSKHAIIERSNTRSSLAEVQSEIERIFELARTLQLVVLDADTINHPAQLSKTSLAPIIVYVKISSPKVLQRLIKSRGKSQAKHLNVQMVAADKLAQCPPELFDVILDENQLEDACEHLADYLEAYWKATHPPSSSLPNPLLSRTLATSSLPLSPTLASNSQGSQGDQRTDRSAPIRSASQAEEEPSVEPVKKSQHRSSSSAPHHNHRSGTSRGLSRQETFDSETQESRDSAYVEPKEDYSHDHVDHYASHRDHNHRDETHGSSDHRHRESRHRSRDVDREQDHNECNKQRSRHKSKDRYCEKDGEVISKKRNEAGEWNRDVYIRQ
T2 sequence (P54289 25-956 partner limits assumed): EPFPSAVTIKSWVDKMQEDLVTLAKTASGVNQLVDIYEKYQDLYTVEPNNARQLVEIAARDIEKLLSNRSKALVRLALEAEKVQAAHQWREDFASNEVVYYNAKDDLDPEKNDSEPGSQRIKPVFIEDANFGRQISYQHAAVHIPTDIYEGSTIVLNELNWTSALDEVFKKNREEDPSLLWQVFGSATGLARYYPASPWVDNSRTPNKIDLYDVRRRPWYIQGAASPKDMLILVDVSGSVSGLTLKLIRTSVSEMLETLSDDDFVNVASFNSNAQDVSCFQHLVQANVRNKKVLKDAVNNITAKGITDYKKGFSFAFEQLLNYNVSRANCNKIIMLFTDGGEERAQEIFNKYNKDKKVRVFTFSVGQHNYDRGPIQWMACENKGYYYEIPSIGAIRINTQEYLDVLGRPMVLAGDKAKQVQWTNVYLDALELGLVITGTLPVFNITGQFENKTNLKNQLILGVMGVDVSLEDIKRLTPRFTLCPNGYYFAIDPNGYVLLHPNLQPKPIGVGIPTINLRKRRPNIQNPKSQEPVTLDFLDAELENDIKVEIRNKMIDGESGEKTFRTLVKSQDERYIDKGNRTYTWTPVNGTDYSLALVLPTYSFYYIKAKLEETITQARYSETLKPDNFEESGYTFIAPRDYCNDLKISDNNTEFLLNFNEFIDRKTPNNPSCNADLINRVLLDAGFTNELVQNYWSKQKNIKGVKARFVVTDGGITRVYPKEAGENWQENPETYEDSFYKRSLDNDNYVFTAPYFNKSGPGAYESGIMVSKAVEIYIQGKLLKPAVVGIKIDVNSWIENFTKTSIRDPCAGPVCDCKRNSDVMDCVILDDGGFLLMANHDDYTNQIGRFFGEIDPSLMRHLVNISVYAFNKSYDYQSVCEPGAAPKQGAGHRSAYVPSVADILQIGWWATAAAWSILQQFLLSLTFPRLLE
T2 sequence (P54289 957-1103 partner limits assumed): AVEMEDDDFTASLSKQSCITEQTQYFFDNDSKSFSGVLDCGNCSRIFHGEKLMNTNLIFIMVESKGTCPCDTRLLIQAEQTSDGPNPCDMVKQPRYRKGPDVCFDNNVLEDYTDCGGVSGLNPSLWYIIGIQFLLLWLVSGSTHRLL
T4 sequence (P10635 whole entry): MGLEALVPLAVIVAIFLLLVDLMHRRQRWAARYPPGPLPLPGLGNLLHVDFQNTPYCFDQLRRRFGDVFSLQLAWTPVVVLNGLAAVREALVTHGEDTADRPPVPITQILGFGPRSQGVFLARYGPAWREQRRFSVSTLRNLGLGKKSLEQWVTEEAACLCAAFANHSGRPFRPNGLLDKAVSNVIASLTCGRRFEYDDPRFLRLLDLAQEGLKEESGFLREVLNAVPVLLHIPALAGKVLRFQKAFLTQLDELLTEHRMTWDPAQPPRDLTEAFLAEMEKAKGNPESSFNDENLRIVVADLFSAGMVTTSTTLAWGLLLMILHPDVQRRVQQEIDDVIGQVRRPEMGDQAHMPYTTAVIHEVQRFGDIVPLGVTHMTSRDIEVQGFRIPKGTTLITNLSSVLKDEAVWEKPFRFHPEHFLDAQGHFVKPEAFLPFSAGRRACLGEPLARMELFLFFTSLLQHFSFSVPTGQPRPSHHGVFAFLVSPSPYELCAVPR
CYP1A, sequence (P05177 2-516): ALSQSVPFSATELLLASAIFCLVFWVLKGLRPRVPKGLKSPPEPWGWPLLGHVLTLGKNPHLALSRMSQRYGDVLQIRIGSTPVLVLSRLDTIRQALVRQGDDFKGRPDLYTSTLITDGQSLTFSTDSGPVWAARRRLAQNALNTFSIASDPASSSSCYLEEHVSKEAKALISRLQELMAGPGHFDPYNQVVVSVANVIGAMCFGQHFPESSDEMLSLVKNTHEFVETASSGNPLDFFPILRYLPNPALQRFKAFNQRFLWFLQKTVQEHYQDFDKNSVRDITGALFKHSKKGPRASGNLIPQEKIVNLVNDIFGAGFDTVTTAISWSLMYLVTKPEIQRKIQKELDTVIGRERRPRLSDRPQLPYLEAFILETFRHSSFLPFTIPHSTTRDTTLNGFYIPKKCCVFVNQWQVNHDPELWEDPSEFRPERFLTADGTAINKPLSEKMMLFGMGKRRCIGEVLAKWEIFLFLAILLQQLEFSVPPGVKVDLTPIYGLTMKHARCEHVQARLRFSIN

For CC(C)Oc1ccc(-c2ncc(CNc3ccnc(C(F)(F)F)c3)cn2)cc1Cl [Compound 24], the IC50 [1] was over 30 µM, the half-life [2] was 50 min and the IC50 [3] was over 30 µM. It also gave an IC50 [4] of over 10 µM, a Tmax [5, 9] of 40.2 ± 54 min and a CL/F ([5]; in vivo, inhaled or intranasal) of 0.8 ± 0.1 mL/min/kg. The Vd/F ([5]; in vivo, inhaled or intranasal) was 0.06 L/kg, the half-life ([5]; in vivo, inhaled or intranasal) was 48.6 min and the Tmax ([5]; in vivo, inhaled or intranasal, ELF Tmax) was 30 min. It also gave a Tmax ([5]; in vivo, inhaled or intranasal, Lung Tmax) of 40.2 ± 18 min, a Tmax ([5]; in vivo, inhaled or intranasal, Tmax) of 40.2 ± 18 min and a Tmax ([5]; lung tissue, iv, Lung Tmax) of 4.8 min. The half-life ([5]; plasma, iv) was 63 ± 6 min, the Cl/F_obs ([5]; plasma) was 0.21 ± 0.0 mL/min/kg and the Vz/F_obs ([5]; plasma) was 0.02 ± 0.0 L/kg. For the same molecule, the half-life at 1 μM [6] was 19 min, the IC50 [7] was over 25 µM and the IC50 [8] was over 25 µM.

With NC[C@H]1O[C@H](O[C@H]2[C@H](O)[C@@H](O[C@H]3O[C@H](CO)[C@@H](O)[C@H](N)[C@H]3O)[C@H](N)C[C@@H]2N)[C@H](N)C[C@@H]1O [Tobramycin, tobramycin] the Tmax ([5]; epithelial lining fluid, inhaled or intranasal, ELF Tmax, […] IT) was 40.2 ± 18 min, the Tmax [5, 9] was 8.4 ± 6 min and the Tmax ([5]; lung, inhaled or intranasal, Lung Tmax, lung tissue, […] IT) was 49.8 ± 18 min. It also gave a CL/F ([5]; plasma, inhaled or intranasal) of 15.2 ± 8 mL/min/kg, a Vd/F ([5]; plasma, inhaled or intranasal) of 1.02 ± 0.4 L/kg and a half-life ([5]; plasma, inhaled or intranasal) of 48.6 ± 12 min. It also gave a Tmax ([5]; plasma, inhaled or intranasal, Tmax, […] IT) of 40.2 ± 18 min, a half-life ([5]; plasma, iv) of 15 ± 6 min and a Cl/F_obs ([5]; plasma) of 27.99 ± 1.8 mL/min/kg. For the same molecule, the Vz/F_obs ([5]; plasma) was 0.60 ± 0.2 L/kg.
